From patent publication EP4603105A1, “PHARMACEUTICAL COMPOSITION CONTAINING CYCLIC COMPOUND HAVING SELECTIVE KRAS INHIBITORY EFFECT AGAINST HRAS AND NRAS” (CHUGAI SEIYAKU KABUSHIKI KAISHA, priority 2022, dated 2024)
Where two headings read alike, the source gives them in different places.

Key:
[1] = molecular target: GDP-bound KRAS wild-type protein (Homo sapiens, UniProt P01116); experiment: Binding to KRAS by surface plasmon resonance (SPR), dissociation constant KD
Procedure, shortened: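 Biotinylated GDP-bound RAS was captured at about 100–300 RU. Running buffer: HBS pH 7.4, 10 mM MgCl2, 10 µM GDP, 1 mM DTT, 0.01% Tween 20, 4% DMSO.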

[2] = molecular target: GDP-bound NRAS wild-type protein (Homo sapiens, UniProt P01111); experiment: Binding to NRAS by surface plasmon resonance (SPR), KD and KD ratio to KRAS
Chain of GDP-bound NRAS wild-type protein (P01111 whole entry): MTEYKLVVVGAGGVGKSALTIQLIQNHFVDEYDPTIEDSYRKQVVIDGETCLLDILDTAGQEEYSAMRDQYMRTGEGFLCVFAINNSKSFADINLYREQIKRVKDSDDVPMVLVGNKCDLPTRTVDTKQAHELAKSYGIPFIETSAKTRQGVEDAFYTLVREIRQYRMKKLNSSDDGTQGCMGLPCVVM
Procedure, shortened: (§1)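 Single-cycle kinetics on GDP-loaded biotin-Avi RAS captured to ~100–300 RU; 75 s ascending injections, 100 µL/min, 30°C. HBS pH 7.4 + 10 mM MgCl2/10 µM GDP/4% DMSO. 1:1 fit, KD.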

HRAS wild-type protein = HRAS wild-type protein (Homo sapiens, UniProt P01112); experiment: Binding to HRAS by surface plasmon resonance (SPR), KD and KD ratio to KRAS
Chain of HRAS wild-type protein (P01112 whole entry): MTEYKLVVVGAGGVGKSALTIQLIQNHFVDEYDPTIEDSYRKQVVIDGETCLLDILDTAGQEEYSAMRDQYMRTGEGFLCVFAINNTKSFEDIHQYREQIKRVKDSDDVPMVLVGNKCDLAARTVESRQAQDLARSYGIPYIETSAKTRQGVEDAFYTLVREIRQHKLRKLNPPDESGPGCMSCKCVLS
Procedure, shortened: as §1

[3] = system: human lung cancer strain NCI-H441; experiment: NCI-H441 cell proliferation inhibitory activity (CellTiter-Glo, 4 days); type: cell-based; conditions: read-out: NCl-H441 IC50
Procedure, shortened: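 Proliferation was scored by […] measured after the reagent was added to cultures kept at 37°C in 5% carbon dioxide.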

[4] = ratio of KD for GDP-bound NRAS wild-type protein to KD for KRAS
[5] = ratio of KD for HRAS wild-type protein to KD for KRAS
[6] = Single Cycle Kinetics, 1:1 binding model
[7] = ratio of KD with respect to GDP-bound NRAS wild-type protein to KD with respect to KRAS
[8] = ratio of KD with respect to HRAS wild-type protein to KD with respect to KRAS
[9] = 50% proliferation inhibitory concentration, four days

Chain of GDP-bound KRAS wild-type protein (P01116 1-188 isoform P01116-2): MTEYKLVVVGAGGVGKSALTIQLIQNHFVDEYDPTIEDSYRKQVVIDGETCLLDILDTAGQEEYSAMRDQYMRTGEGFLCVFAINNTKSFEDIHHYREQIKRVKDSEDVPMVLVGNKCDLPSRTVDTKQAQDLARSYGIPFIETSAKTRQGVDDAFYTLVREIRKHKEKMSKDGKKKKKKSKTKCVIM

Row | Kd ([1]; Single Cycle Kinetics) [nM] | IC50 ([3]; NCI-H441 cells, 4 days) [nM] | Kd [1, 6] [nM] | IC50 [3, 9] [nM] | Kd ([1]; 1:1 binding model) [nM] | SMILES | NRAS /KRAS [2, 4] | HRAS /KRAS (HRAS wild-type protein; [5]) | NRAS /KRAS [2, 7] | HRAS /KRAS (HRAS wild-type protein; [8])
1 | 0.13 | 5.4 | – | – | – | CCC[C@H]1C(=O)N[C@@H]([C@@H](C)CC)C(=O)N(C)CC(=O)N(C)[C@H]2C/C=C\CCN(C2=O)[C@@H](Cc2ccc(C)cc2)C(=O)N(C)CC(=O)N[C@@H](CCc2ccc(C(F)(F)F)c(OC)c2)C(=O)N2CC3(CC3)C[C@H]2C(=O)N(C)C2(CCC2)C(=O)N(C)[C@@H](C(CC)CC)C(=O)N(C)[C@H](C(=O)N(C)C)CC(=O)N1C [PP3292] | A (a compound having 10 or more and less than 20 is denoted as A) | A (a compound having 10 or more and less than 20 is denoted as A) | – | –
2 | – | – | 0.18 | 10.2 | – | CCO[C@@H]1C[C@H]2C(=O)NC3(CCC3)C(=O)N(C)[C@@H](C3CCCC3)C(=O)N(C)[C@H](C(=O)N(C)C)CC(=O)N(C)[C@@H](CC(C)C)C(=O)N[C@@H]([C@@H](C)CC)C(=O)N(C)CC(=O)N(C)[C@H]3C/C=C\CCN(C3=O)[C@@H](Cc3ccc(C(F)(F)F)cc3)C(=O)N(C)CC(=O)N[C@@H](CCc3ccc(Cl)c(Cl)c3)C(=O)N2C1 [PP1251] | – | – | AA (a compound having 20 or more is denoted as AA) | A (a compound having 10 or more and less than 20 is denoted as A)
3 | – | 50.2 | – | – | 0.97 | CCO[C@@H]1C[C@H]2C(=O)NC3(CC(C)(C)C3)C(=O)N(C)[C@@H](C(CC)CC)C(=O)N(C)[C@H](C(=O)N(C)C)CC(=O)N(C)[C@@H](COC)C(=O)N[C@@H]([C@@H](C)CC)C(=O)N3CCC[C@H]3C(=O)N(C)[C@H]3C/C=C\CCN(C3=O)[C@@H](Cc3ccc(C(F)(F)F)cc3)C(=O)N(C)CC(=O)N[C@@H](CCc3ccc(Cl)c(Cl)c3)C(=O)N2C1 [PP2635] | AA (a compound having 20 or more is denoted as AA) | A (a compound having 10 or more and less than 20 is denoted as A) | – | –
4 | 0.41 | 6 | – | – | – | CCO[C@@H]1C[C@H]2C(=O)OC3(CCC3)C(=O)N(C)[C@@H](C3CCCC3)C(=O)N(C)[C@H](C(=O)N(C)C)CC(=O)N(C)[C@@H]([C@@H](C)OC)C(=O)N[C@@H]([C@@H](C)CC)C(=O)N(C3CC3)CC(=O)N(C)[C@H]3C/C=C\CCN(C3=O)[C@@H](Cc3ccc(C(F)(F)F)cc3)C(=O)N(C)CC(=O)N[C@@H](CCc3ccc(C(F)(F)F)c(OC)c3)C(=O)N2C1 [PP3375] | A (a compound having 10 or more and less than 20 is denoted as A) | B (a compound having 3 or more and less than 10 is denoted as B) | – | –
5 | 3.1 | 115 | – | – | – | CCCO[C@@H]1C[C@H]2C(=O)NC3(CC(C)(C)C3)C(=O)N(C)[C@@H](C3CCCC3)C(=O)N(C)[C@H](C(=O)N(C)CC)CC(=O)N(C)[C@@H](COCC)C(=O)N[C@@H]([C@@H](C)CC)C(=O)N3C[C@@H](C)C[C@H]3C(=O)N(C)[C@H]3C/C=C\CCN(C3=O)[C@@H](Cc3ccc(C)cc3)C(=O)N(C)CC(=O)N[C@@H](CCc3cc(F)c(C(F)(F)F)c(F)c3)C(=O)N2C1 [PP3460] | A (a compound having 10 or more and less than 20 is denoted as A) | A (a compound having 10 or more and less than 20 is denoted as A) | – | –
6 | 0.51 | 44.7 | – | – | – | CCO[C@@H]1C[C@H]2C(=O)NC3(CCCC3)C(=O)N(C)[C@@H](C3CCCC3)C(=O)N(C)[C@H](C(=O)N(C)C)CC(=O)N(C)[C@@H]([C@@H](C)OC)C(=O)N[C@@H]([C@@H](C)CC)C(=O)N3CCC[C@H]3C(=O)N(C)[C@H]3C/C=C\CCN(C3=O)[C@@H](Cc3ccc(C(F)(F)F)cc3)C(=O)N(C)CC(=O)N[C@@H](CCc3cc(F)c(C(F)(F)F)c(F)c3)C(=O)N2C1 [PP3477] | A (a compound having 10 or more and less than 20 is denoted as A) | A (a compound having 10 or more and less than 20 is denoted as A) | – | –
7 | – | 51.7 | – | – | 0.23 | CCCO[C@H](C)[C@@H]1NC(=O)[C@H](COCC)N(C)C(=O)C[C@@H](C(=O)N(C)CC)N(C)C(=O)[C@H](C2CCCC2)N(C)C(=O)C2(CC(C)(C)C2)NC(=O)[C@@H]2C[C@H](C)CN2C(=O)[C@H](CCc2ccc(C(F)(F)F)c(OC)c2)NC(=O)CN(C)C(=O)[C@H](Cc2ccc(C)cc2)N2CC/C=C\C[C@@H](C2=O)N(C)C(=O)CN(C)C1=O [PP2425] | AA (a compound having 20 or more is denoted as AA) | A (a compound having 10 or more and less than 20 is denoted as A) | – | –
8 | 0.34 | 3.4 | – | – | – | CCC[C@H]1C(=O)N[C@@H]([C@@H](C)CC)C(=O)N(C)CC(=O)N(C)[C@H]2C/C=C\CCN(C2=O)[C@@H](Cc2ccc(C)cc2)C(=O)N(C)CC(=O)N[C@@H](CCc2ccc(C(F)(F)F)c(Cl)c2)C(=O)N2CC3(CC3)C[C@H]2C(=O)N(C)C2(CCC2)C(=O)N(C)[C@@H](C2CCCC2)C(=O)N(C)[C@H](C(=O)N(C)C)CC(=O)N1C [PP3298] | B (a compound having 3 or more and less than 10 is denoted as B) | B (a compound having 3 or more and less than 10 is denoted as B) | – | –
9 | – | 26.3 | – | – | 0.67 | CC[C@H](C)[C@@H]1NC(=O)[C@H](COC)N(C)C(=O)C[C@@H](C(=O)N2CCCCC2)N(C)C(=O)[C@H](C2CCCC2)N(C)C(=O)C2(CC(C)(C)C2)NC(=O)[C@@H]2C[C@@H](OC(C)C)CN2C(=O)[C@H](CCc2ccc(Cl)c(Cl)c2)NC(=O)CN(C)C(=O)[C@H](Cc2ccc(C(F)(F)F)cc2)N2CC/C=C\C[C@@H](C2=O)N(C)C(=O)CN(C)C1=O [PP2671] | A (a compound having 10 or more and less than 20 is denoted as A) | A (a compound having 10 or more and less than 20 is denoted as A) | – | –
10 | 0.43 | 11.6 | – | – | – | C#CCN1CC(=O)N(C)[C@H]2C/C=C\CCN(C2=O)[C@@H](Cc2ccc(C(F)F)cc2)C(=O)N(C)CC(=O)N[C@@H](CCc2cc(F)c(C(F)(F)F)c(F)c2)C(=O)N2C[C@H](OC(C)C)C[C@H]2C(=O)N(C)C2(CCC2)C(=O)N(C)[C@@H](C(CC)CC)C(=O)N(C)[C@H](C(=O)N(C)C)CC(=O)N(C)[C@@H](CC(F)(F)F)C(=O)N[C@@H](C(C)C)C1=O [PP3496] | A (a compound having 10 or more and less than 20 is denoted as A) | A (a compound having 10 or more and less than 20 is denoted as A) | – | –
11 | – | – | 0.15 | 30.4 | – | CC[C@H](C)[C@@H]1NC(=O)[C@H](CC)N(C)C(=O)C[C@@H](C(=O)N(C)C)N(C)C(=O)[C@H](C2CCCC2)N(C)C(=O)C2(CCC2)NC(=O)[C@@H]2C[C@H](C)CN2C(=O)[C@H](CCc2cc(F)c(C(F)(F)F)c(F)c2)NC(=O)CN(C)C(=O)[C@H](CC2CCC(F)(F)CC2)N2CC/C=C\C[C@@H](C2=O)N(C)C(=O)CN(C)C1=O [PP1457] | – | – | A (a compound having 10 or more and less than 20 is denoted as A) | A (a compound having 10 or more and less than 20 is denoted as A)
12 | – | – | 0.074 | 18.7 | – | CCO[C@@H]1C[C@H]2C(=O)NC3(CCC3)C(=O)N(C)[C@@H](C3CCCC3)C(=O)N(C)[C@H](C(=O)N(C)C)CC(=O)N(C)[C@@H](CC3CC3)C(=O)N[C@@H]([C@@H](C)CC)C(=O)N(C)CC(=O)N(C)[C@H]3C/C=C\CCN(C3=O)[C@@H](Cc3ccc(C)cc3)C(=O)N(C)CC(=O)N[C@@H](CCc3cc(F)c(C(F)(F)F)c(F)c3)C(=O)N2C1 [PP1407] | – | – | A (a compound having 10 or more and less than 20 is denoted as A) | A (a compound having 10 or more and less than 20 is denoted as A)
13 | 0.35 | 26.2 | – | – | – | CCCOC[C@@H]1NC(=O)C[C@@H](C(=O)N(C)CCC)N(C)C(=O)[C@H](C2CCCC2)N(C)C(=O)C2(CC(C)(C)C2)NC(=O)[C@@H]2C[C@@H](OCC)CN2C(=O)[C@H](CCc2cc(F)c(C(F)(F)F)c(F)c2)NC(=O)CN(C)C(=O)[C@H](Cc2ccc(C(F)(F)F)cc2)N2CC/C=C\C[C@@H](C2=O)N(C)C(=O)CN(C)C(=O)[C@H]([C@@H](C)CC)NC1=O [PP3451] | A (a compound having 10 or more and less than 20 is denoted as A) | A (a compound having 10 or more and less than 20 is denoted as A) | – | –
14 | 1.8 | 22.8 | – | – | – | CCC[C@H]1C(=O)N[C@@H](C23CC(C2)C3)C(=O)N2CCC[C@H]2C(=O)N(C)[C@H]2C/C=C\CCN(C2=O)[C@@H](Cc2ccc(C)cc2)C(=O)N(C)CC(=O)N[C@@H](CCc2ccc(C(F)(F)F)c(OC)c2)C(=O)N2C[C@H](OCC)C[C@H]2C(=O)N(C)C2(CCC2)C(=O)N(C)[C@@H](C2CCCC2)C(=O)N(C)[C@H](C(=O)N(C)C)CC(=O)N1C [PP3342] | A (a compound having 10 or more and less than 20 is denoted as A) | A (a compound having 10 or more and less than 20 is denoted as A) | – | –
15 | – | 102 | – | – | 1.9 | CCC[C@H]1C(=O)N[C@@H]([C@@H](C)CC)C(=O)N(C2CC2)CC(=O)N(C)[C@H]2C/C=C\CCN(C2=O)[C@@H](CC2CCC(F)(F)CC2)C(=O)N(C)CC(=O)N[C@@H](CCc2ccc(Cl)c(Cl)c2)C(=O)N2C[C@H](OCC)C[C@H]2C(=O)NC2(CC(C)(C)C2)C(=O)N(C)[C@@H](C2CCCC2)C(=O)N(C)[C@H](C(=O)N(C)C)CC(=O)N1C [PP2567] | A (a compound having 10 or more and less than 20 is denoted as A) | A (a compound having 10 or more and less than 20 is denoted as A) | – | –
